# According to ChEMBL document CHEMBL1147055, “Noxious compounds activate TRPA1 ion channels through covalent modification of cysteines” (Nature, 2007):
# The source made the active and inactive calls. The calls are words filed in the database; no cut-off is given here.
# Assays:
# [1] = target: Transient receptor potential cation channel subfamily A member 1 (Homo sapiens, UniProt O75762); experiment: Activation of TRPA1
# [2] = target: Transient receptor potential cation channel subfamily A member 1 (Mus musculus) (UniProt Q8BLA8); experiment: Activation of mouse TRPA1 expressed in HEK293T cells at 100 uM assessed as activation of cation conductance by electrophysiology; assay type: cell-based; conditions: HEK-293T
# [3] = target: Transient receptor potential cation channel subfamily A member 1 (Mus musculus) (UniProt Q8BLA8); experiment: Activation of mouse TRPA1 expressed in CHO cells assessed as increase in intracellular calcium level; assay type: cell-based
# [4] = target: Transient receptor potential cation channel subfamily A member 1 (Mus musculus) (UniProt Q8BLA8); experiment: Activation of mouse TRPA1 expressed in HEK293T cells at 30 uM assessed as activation of cation conductance by electrophysiology; assay type: cell-based; conditions: HEK-293T
# [5] = target: Transient receptor potential cation channel subfamily A member 1 (Mus musculus) (UniProt Q8BLA8); experiment: Binding affinity to mouse TRPA1 expressed in HEK293T cells at 100 uM assessed as covalent protein modification; assay type: cell-based; conditions: HEK-293T
# [6] = target: Transient receptor potential cation channel subfamily A member 1 (Mus musculus) (UniProt Q8BLA8); experiment: Activation of mouse TRPA1 expressed in HEK293T cells at 50 uM in presence of dithiothreitol by electrophysiology; assay type: cell-based; conditions: HEK-293T
# [7] = target: Transient receptor potential cation channel subfamily A member 1 (Mus musculus) (UniProt Q8BLA8); experiment: Activation of mouse TRPA1 expressed in HEK293T cells at 50 uM assessed as activation of cation conductance by electrophysiology; assay type: cell-based; conditions: HEK-293T
# [8] = test system: Transient receptor potential cation channel subfamily A member 1 (Mus musculus), Q8BLA8 [C422S]; experiment: Activation of mouse TRPA1 C422S mutant expressed in CHO cells at 100 uM by calcium imaging FLIPR assay; assay type: cell-based
# [9] = test system: Transient receptor potential cation channel subfamily A member 1 (Mus musculus), Q8BLA8 [C622S]; experiment: Activation of mouse TRPA1 C622S mutant expressed in CHO cells at 100 uM by calcium imaging FLIPR assay; assay type: cell-based
# [10] = test system: Transient receptor potential cation channel subfamily A member 1 (Mus musculus), Q8BLA8 [C415S]; experiment: Activation of mouse TRPA1 C415S mutant expressed in CHO cells at 100 uM by calcium imaging FLIPR assay; assay type: cell-based
# [11] = target: Transient receptor potential cation channel subfamily A member 1 (Mus musculus) (UniProt Q8BLA8); experiment: Reversal of activation of mouse TRPA1 expressed in HEK293T cells at 400 uM in presence of dithiothreitol by electrophysiology; assay type: cell-based; conditions: HEK-293T
# [12] = target: Transient receptor potential cation channel subfamily A member 1 (Mus musculus) (UniProt Q8BLA8); experiment: Activation of mouse TRPA1 expressed in CHO cells at 100 uM by calcium imaging FLIPR assay; assay type: cell-based
# Transient receptor potential cation channel subfamily A member 1 (Mus musculus), sequence (Q8BLA8 whole entry): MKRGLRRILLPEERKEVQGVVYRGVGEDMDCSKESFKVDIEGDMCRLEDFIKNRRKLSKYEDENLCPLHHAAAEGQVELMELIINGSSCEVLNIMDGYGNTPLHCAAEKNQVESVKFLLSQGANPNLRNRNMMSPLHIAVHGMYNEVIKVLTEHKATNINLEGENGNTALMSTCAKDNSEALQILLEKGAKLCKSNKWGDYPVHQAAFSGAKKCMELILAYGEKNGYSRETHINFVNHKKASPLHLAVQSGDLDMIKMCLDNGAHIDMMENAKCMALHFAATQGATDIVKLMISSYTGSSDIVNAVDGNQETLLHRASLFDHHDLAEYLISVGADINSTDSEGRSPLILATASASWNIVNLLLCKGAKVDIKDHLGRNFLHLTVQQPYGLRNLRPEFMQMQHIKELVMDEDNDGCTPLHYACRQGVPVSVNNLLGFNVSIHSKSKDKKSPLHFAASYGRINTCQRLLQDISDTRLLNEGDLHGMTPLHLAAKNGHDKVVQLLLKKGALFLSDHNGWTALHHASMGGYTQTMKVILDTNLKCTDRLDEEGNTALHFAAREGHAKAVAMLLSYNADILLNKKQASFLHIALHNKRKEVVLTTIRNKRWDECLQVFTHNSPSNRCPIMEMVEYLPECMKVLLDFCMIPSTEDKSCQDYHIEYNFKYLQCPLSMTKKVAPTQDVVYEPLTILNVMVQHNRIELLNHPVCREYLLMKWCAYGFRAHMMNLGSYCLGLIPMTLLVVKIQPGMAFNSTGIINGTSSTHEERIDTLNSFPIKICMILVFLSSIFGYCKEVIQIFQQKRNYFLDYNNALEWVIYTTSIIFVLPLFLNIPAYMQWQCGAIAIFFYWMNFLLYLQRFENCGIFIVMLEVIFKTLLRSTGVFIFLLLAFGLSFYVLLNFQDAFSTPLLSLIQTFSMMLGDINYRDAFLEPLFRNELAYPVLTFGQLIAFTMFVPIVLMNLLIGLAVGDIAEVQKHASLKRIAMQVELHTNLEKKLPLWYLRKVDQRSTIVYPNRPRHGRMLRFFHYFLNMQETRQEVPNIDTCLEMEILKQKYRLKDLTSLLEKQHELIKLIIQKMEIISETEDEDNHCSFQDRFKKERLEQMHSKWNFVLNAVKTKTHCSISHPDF
# Transient receptor potential cation channel subfamily A member 1, sequence (O75762 whole entry): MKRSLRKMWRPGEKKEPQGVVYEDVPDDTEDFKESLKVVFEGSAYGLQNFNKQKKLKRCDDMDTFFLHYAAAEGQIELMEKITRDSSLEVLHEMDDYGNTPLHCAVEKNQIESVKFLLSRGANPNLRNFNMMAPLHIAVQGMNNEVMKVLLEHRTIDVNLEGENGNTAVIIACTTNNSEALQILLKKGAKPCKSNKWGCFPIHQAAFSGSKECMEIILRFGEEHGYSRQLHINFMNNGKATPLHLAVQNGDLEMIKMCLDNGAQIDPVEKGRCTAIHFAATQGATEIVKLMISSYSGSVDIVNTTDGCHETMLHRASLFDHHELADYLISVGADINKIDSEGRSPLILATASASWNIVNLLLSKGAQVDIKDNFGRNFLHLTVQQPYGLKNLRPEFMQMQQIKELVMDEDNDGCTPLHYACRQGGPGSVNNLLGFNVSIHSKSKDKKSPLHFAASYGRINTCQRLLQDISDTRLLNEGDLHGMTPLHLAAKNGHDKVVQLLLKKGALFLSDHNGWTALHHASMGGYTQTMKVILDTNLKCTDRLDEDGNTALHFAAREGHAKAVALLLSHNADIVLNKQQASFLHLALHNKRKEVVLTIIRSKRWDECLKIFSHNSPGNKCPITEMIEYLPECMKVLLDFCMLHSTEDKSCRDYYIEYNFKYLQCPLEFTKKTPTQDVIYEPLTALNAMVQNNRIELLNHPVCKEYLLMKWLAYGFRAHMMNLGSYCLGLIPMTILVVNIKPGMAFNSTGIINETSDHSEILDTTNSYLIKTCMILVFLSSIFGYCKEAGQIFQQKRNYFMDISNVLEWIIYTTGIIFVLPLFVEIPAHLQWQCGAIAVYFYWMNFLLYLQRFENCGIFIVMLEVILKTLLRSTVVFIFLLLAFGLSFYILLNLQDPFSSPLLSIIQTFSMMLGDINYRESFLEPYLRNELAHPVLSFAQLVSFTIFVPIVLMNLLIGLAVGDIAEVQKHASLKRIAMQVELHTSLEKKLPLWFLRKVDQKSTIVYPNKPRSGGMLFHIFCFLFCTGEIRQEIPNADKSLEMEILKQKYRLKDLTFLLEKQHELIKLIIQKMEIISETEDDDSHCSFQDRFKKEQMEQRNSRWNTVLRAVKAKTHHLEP
# Transient receptor potential cation channel subfamily A member 1 (Mus musculus), Q8BLA8 [C622S], sequence (Q8BLA8 whole entry C622S): as the sequence (Q8BLA8 whole entry) above, with C622S counted along it
# Transient receptor potential cation channel subfamily A member 1 (Mus musculus), Q8BLA8 [C415S], sequence (Q8BLA8 whole entry C415S): as the sequence (Q8BLA8 whole entry) above, with C415S counted along it
# Transient receptor potential cation channel subfamily A member 1 (Mus musculus), Q8BLA8 [C422S], sequence (Q8BLA8 whole entry C422S): as the sequence (Q8BLA8 whole entry) above, with C422S counted along it
smiles,measurement,setting,value
CC(=O)CC1(O)C(=O)N(C)c2ccccc21 (stereo not drawn),Activity,[1],inactive
O=C1NC(c2cccc([N+](=O)[O-])c2)=CCN1c1ccccc1O,Activity,[2],Active
C=CCN=C=S,Activity,[3],Active
same,Activity,[4],Active
C#CCN1C(=O)/C(=C/C(C)=O)c2ccccc21,Activity,[5],Active
same,EC50,[1],0.1 µM
CC/C=C/C=O [PENTENAL],EC50,[1],5 µM
C#CCN=C=S [PROPARGYL ISOTHIOCYANATE],Activity,[5],Active
same,EC50,[1],18.4 µM
C=CC=O [ACROLEIN],EC50,[1],5 µM
CC(=O)/C=C1/C(=O)N(C)c2ccccc21,Activity,[3],Active
same,Activity,[6],Active
same,Activity,[7],Active
same,EC50,[1],0.8 µM
O=C/C=C/c1ccccc1,Activity,[8],inactive
same,Activity,[9],inactive
same,Activity,[10],inactive
same,EC50,[1],19 µM
CCC=O,Activity,[1],inactive
OC/C=C/c1ccccc1,Activity,[1],inactive
CS(=O)(=O)SCCN,Activity,[11],Active
same,Activity,[3],Active
same,EC50,[1],1.58 µM
C#CCCCCNC(=O)CI [IODOACETAMIDE ALKYNE],Activity,[5],Active
same,EC50,[1],134 µM
O=C1CCC(=O)N1O,Activity,[12],inactive
NC(=O)CI [IODOACETAMIDE],Activity,[3],Active
same,EC50,[1],357 µM
